From ChEMBL document CHEMBL1156829 (Proc Natl Acad Sci U S A, 2008)
pEC50: −log10 of the molar value.

Columns and labels:
[1] = system: Plasmodium falciparum; experiment: NOVARTIS: Inhibition of Plasmodium falciparum W2 (drug-resistant) proliferation in erythrocyte-based infection assay; assay type: functional, organism-based; details: Plasmodium falciparum, W2; read-out: EC50
[2] = NOVARTIS: Cytotoxicity against human hepatocellular carcinoma cell line (Huh7); assay type: toxicity, cell-based, Huh-7; details: Huh7 cells (hepatocellular carcinoma cell line)
[3] = system: Plasmodium falciparum; experiment: NOVARTIS: Inhibition of Plasmodium falciparum 3D7 (drug-susceptible) proliferation in erythrocyte-based infection assay; assay type: functional, organism-based; details: Plasmodium falciparum, 3D7

SMILES | pEC50 [1] | CC50 [2] [nM] | pEC50 [3]
COCCN(CC(=O)Nc1cc(C(C)(C)C)nn1-c1ccc(C)cc1)C(=O)COCc1ccccc1 | < 5.90 | > 10000 | < 6.09
c1ccc([B-](c2ccccc2)(c2ccccc2)c2ccccc2)cc1 | 7.35 | > 100000 | 6.91
Cc1ccc(NC(c2ccccc2)(c2ccccc2)c2ccccc2)cc1C | 6.68 | > 100000 | 6.36
O=[N+]([O-])c1ccc(-c2ccc(C=NNc3nc(Nc4ccccc4)nc(Nc4ccccc4)n3)o2)cc1 | 6.03 | > 100000 | 6.06
Cc1cc(Nc2cccc(Cl)c2)nc2ccc(NC(=O)c3cccnc3)cc12 | 5.88 | 4190 | 6.14
CN1CCN(C(=S)NC(=O)/C=C/c2ccc(F)cc2)CC1 | < 6.06 | > 10000 | < 5.90
CCOc1ccc(N=C2NC(=O)S/C2=C2/C(=O)Nc3ccc(Br)cc32)cc1 | < 6.14 | > 10000 | < 5.90
CCN1/C(=C/c2sc3ccc(OC)cc3[n+]2CC)C=Cc2cc(OC)ccc21 | 6.26 | > 10000 | 6.28
COc1cccc(-c2ccc(O)c(CN3CCC(C)CC3)c2)n1 | 6.89 | 75000 | 6.47
O=C1CC(=O)Nc2cc(S(=O)(=O)NC3CCCCCCC3)ccc2N1 | < 6.10 | > 10000 | < 5.90
CC(c1nc2ccc(Cl)cc2c(=O)n1C)N1CCN(S(=O)(=O)c2cccc3ccccc23)CC1 (centres undefined) | 6.85 | > 100000 | 6.83
Cn1nc(C(=O)N2CCc3ccccc3C2)c2c1CCC(N1CCN(Cc3cccc(F)c3)CC1)C2 (centres undefined) | 6.66 | 8020 | 6.32
Brc1ccc(-c2cn3c([n+]2Cc2ccccc2)SCCC3)cc1 | 5.61 | 53300 | 6.38
COc1cccc(C(=O)NC(c2ccccc2OC)c2cc(Cl)c3cccnc3c2O)c1 (centres undefined) | 5.94 | > 100000 | 5.92
CCC(c1nc2ccccc2c(=O)n1-c1ccc(Cl)cc1C)N(CCc1ccccc1)C(=O)c1cccc(OC)c1 (centres undefined) | 6.63 | > 10000 | 6.28
CCOC(=O)C1(CC2CCCCO2)CCN(C(=O)Nc2cccc(SC)c2)CC1 (centres undefined) | 5.34 | > 100000 | < 4.90
CN1CCC(N[C@@H]2C[C@@H](C(=O)N3CCN(c4cccc(C(F)(F)F)c4)CC3)N(Cc3ccccc3Cl)C2)CC1 | < 5.93 | > 10000 | < 5.90
COc1ccc(CN2CCc3nc(N4CCCCC4)sc3C2)cc1 | 6.52 | > 10000 | 6.53
COc1cc(C2c3[nH]c4ccccc4c3C[C@H]3C(=O)N(CCc4ccccc4)CC(=O)N23)cc(OC)c1OC (some centres undefined) | 6.43 | > 100000 | 6.21
OC(CN1CCOCC1)Cn1c2ccc(Br)cc2c2cc(Br)ccc21 (centres undefined) | 6.36 | 47400 | 6.00
CC(C)(C)C(=O)Nc1ccc(C23CC4CC(CC(c5ccccc5)(C4)C2)C3)cc1 | < 4.90 | > 100000 | 6.15
Brc1ccc(-c2cn3c([n+]2-c2ccccc2)SCC3)cc1 | 6.52 | > 100000 | 6.47
COc1ccc(N(C)C(=O)CNC(=O)c2nn(-c3ccc(OC)cc3OC)c(=O)c3ccccc23)cc1 | < 6.16 | > 10000 | < 5.90

SMILES | pEC50 [1] | CC50 [2] [nM] | pEC50 [3]
CC(C)c1nc(N2CCN(C(=S)NCc3ccccc3)CC2)c(C#N)c2c1COC(C)(C)C2 | 6.95 | > 100000 | 6.74
Cn1c(=O)c(Cl)c2c3c(c(Cl)ccc31)C(=O)c1ccccc1-2 | < 5.90 | > 10000 | < 6.53
O=C(Nc1cccc(Cl)c1)Nc1cc(C(F)(F)F)cc(C(F)(F)F)c1 | < 5.00 | 19500 | 5.49
CCC(=O)N1CCc2cc(S(=O)(=O)N3CCN(c4cccc(C(F)(F)F)c4)CC3)ccc21 | 6.40 | > 10000 | 6.24
COc1ccccc1N1C(=N)S/C(=C/c2ccc(N(C)C)cc2)C1=O | 6.87 | > 10000 | 6.92
CCOc1ccc2[nH]c3c(NCCCN4CCOCC4)ncnc3c2c1 | 6.57 | 36400 | 6.13
CCOC(=O)C(=CNc1ccc(I)cn1)C(=O)OCC | > 7.90 | > 10000 | 6.72
CCOC(=O)c1ccc(NC(=O)c2cc(-c3ccccc3)nc3ccc(C)cc23)cc1 | 5.68 | > 100000 | < 4.90
Cc1ccccc1/C=C1/SC(=Nc2ccccc2)NC1=O | < 5.85 | > 10000 | < 6.28
CCc1nc2nc(C)cc(Nc3ccc(C)c(F)c3)n2n1 | 6.85 | > 100000 | 6.60
CCCCCC(=O)N(CCN(C)C)C(CC)c1nc2ccccc2c(=O)n1-c1ccc(F)cc1 (centres undefined) | < 6.20 | > 10000 | < 5.90
CCC(C)OC(=O)C1=C(C)NC2=C(C(=O)CC(c3ccc(Cl)cc3)C2)C1c1ccccc1F (centres undefined) | 7.23 | > 100000 | 6.69
COc1ccc2cc(CNCCCO)c(N3CCN(c4ccc(F)cc4)CC3)nc2c1 | 6.22 | 20000 | 5.52
COc1ccc(CCNC(=O)c2cc(S(=O)(=O)N3CC(C)CC(C)C3)ccc2Sc2ccc(F)cc2)cc1OC (centres undefined) | 5.90 | > 10000 | 5.98
COc1ccc2cc(CNC3CCN(Cc4ccccc4)CC3)c(=O)[nH]c2c1 | 6.07 | > 65900 | 6.17
OC(CNC1CCCCC1)Cn1c2ccc(Cl)cc2c2cc(Cl)ccc21 (centres undefined) | 6.94 | 57300 | 6.48
C[C@@H]1C[C@@H](C)C(=O)[C@@H](C(O)CC2CC(=O)NC(=O)C2)C1 (some centres undefined) | 6.44 | 2140 | 6.82
COc1ccc(S(=O)(=O)N=C2C=C(Nc3ccc(O)cc3)C(=O)c3ccccc32)cc1 | 6.96 | 2450 | 6.73
O=C(c1c2c(nc3ccccc13)CCC2)N1CCc2ccccc21 | > 7.44 | > 11700 | 5.71
COc1ccc(CNc2ncnc3c2[nH]c2cc(OC)ccc23)cc1 | 6.07 | 24100 | 6.02
CC1(C)CN=C(NCc2ccccc2Cl)S1 | 5.83 | 34200 | 5.13
Fc1ccc2nc(Nc3nc(-c4ccccn4)cs3)sc2c1 | 6.67 | 3040 | 5.90
CCN1/C(=C/c2ccc3ccccc3[n+]2CC)Sc2sc3ccccc3c21 | 6.87 | 4770 | 7.00

SMILES | pEC50 [1] | CC50 [2] [nM] | pEC50 [3]
Cc1noc(C)c1C(=O)N1CCC(O)(c2ccccn2)CC1 | < 5.85 | > 10000 | < 6.25
COc1ccc(OC)c(NC2=C(Cl)C(=O)N(c3ccc(C)c(Cl)c3)C2=O)c1 | < 4.90 | > 100000 | 5.29
CC(C)CC(NC(=O)C(=Cc1ccco1)NC(=O)c1ccccc1)C(=O)OCc1ccccc1 (centres undefined) | 5.76 | > 100000 | < 4.90
O=C(Nc1cccc(Oc2ccccc2)c1)NC(CN1CCCC1)c1ccccc1 (centres undefined) | 5.84 | 11800 | 6.15
O=C(ON(C(=O)c1ccc(F)cc1)C1C2CC3CC(C2)CC1C3)c1ccc(F)cc1 (centres undefined) | 7.57 | > 10000 | < 5.90
O=C(N=CNNc1ccccc1F)c1cc(OCC(F)(F)F)ccc1OCC(F)(F)F | > 8.50 | > 10000 | < 6.27
CCC(C)NC(=O)c1nn(-c2ccc(OC)cc2)c(=O)c2ccccc12 (centres undefined) | 6.45 | > 100000 | 6.10
Clc1ccc(-n2cc(-c3ccccc3)c3c(N4CCC(Cc5ccccc5)CC4)ncnc32)cc1 | < 5.40 | > 100000 | < 5.00
C/N=C(\N)Nc1nc(C)c2cc(OC)ccc2n1 | 6.14 | > 10000 | 6.18
CCC(=O)N1c2ccccc2NC2=C(C(=O)CC(C)(C)C2)C1c1ccc2c(c1)OCO2 (centres undefined) | 5.17 | > 100000 | 5.45
C=CCc1cc([N+](=O)[O-])cc2c1OC1(C=C2)N(c2ccccc2)c2ccccc2C1(C)C (centres undefined) | 6.05 | > 10000 | 6.40
Cc1cc(NC(=O)C2c3ccccc3C(=O)N(CC(C)C)C2c2cccs2)no1 (centres undefined) | 7.34 | > 100000 | 7.07
CN(C)CCNC(=O)c1c[nH]c2ccc(S(=O)(=O)N3CCc4ccccc43)cc2c1=O | < 5.90 | > 10000 | 6.38
c1ccc(-c2nc(NCCCn3ccnc3)cc(-c3ccncc3)n2)cc1 | 6.34 | > 10000 | 6.62
O=C(/C=C\c1ccccc1)Nc1ccc2[nH]c(-c3ccc(NC(=O)/C=C/c4ccccc4)cc3)nc2c1 | 6.37 | > 10000 | 6.59
CCCCCN(C(=O)c1ccc(C(C)(C)C)cc1)C(CC)c1nc2ccccc2c(=O)n1-c1ccccc1OC (centres undefined) | < 5.90 | > 10000 | < 6.93
COc1cc(/C=C2\SC(c3ccc(C)cc3)=NC2=O)cc(OC)c1OC | < 5.91 | > 10000 | < 5.90
COc1cccc(OC)c1C(=O)NCCCCNc1ccnc2cc(Cl)ccc12 | 6.70 | > 12200 | 6.35
COc1ccc(CN(C=O)/C=C2\Sc3ccccc3C2=O)cc1OC | 6.21 | > 10000 | < 5.90
CC(=O)Nc1c(NCc2ccccc2)c2ccccc2sc1=O | 6.81 | > 100000 | 6.30
COc1cc(/C=C2\CC/C(=C\c3cc(OC)c(OC)c(OC)c3)C2=O)cc(OC)c1OC | 6.34 | 873 | 6.34
CCOC(=O)c1cccc(NC(=O)CCn2nc(C)c3c(C)n(-c4ccccc4)nc3c2=O)c1 | 5.37 | > 100000 | 5.51
